Tested on: MCF-7 breast cancer cells
Assay: Microarray gene expression analysis (Agilent whole human genome 4 x 44K; compound vs DMSO, LIMMA log2 fold change)
Format: cell-based
Details: Apoptosis genes

Cn1ncc2c(N3CCOCC3)nc(-c3cccc(O)c3)nc21 [ETP-45658]
PML log2FC (Gene 5371): -0.804 | POLR2G log2FC (Gene 5436): 0.335 | POU3F3 log2FC (Gene 5455): -0.318 | POU4F1 log2FC (Gene 5457): -0.504 | POU4F3 log2FC (Gene 5459): -0.263 | PPARD log2FC (Gene 5467): -0.520 | PPARG log2FC (Gene 5468): -0.185 | PPID log2FC (Gene 5481): 0.248 | PPP1CA log2FC (Gene 5499): -0.227 | PPP2CA log2FC (Gene 5515): -0.322 | PPP2CB log2FC (Gene 5516): -0.242 | PPP2R1B log2FC (Gene 5519): -0.532 | PPP2R2B log2FC (Gene 5521): 0.082 | PPP2R4 log2FC (Gene 5524): -0.446 | PPP2R5C log2FC (Gene 5527): 0.888 | PPP3CC log2FC (Gene 5533): 0.163 | PPP3R1 log2FC (Gene 5534): -0.308 | PPT1 log2FC (Gene 5538): 0.432 | PRF1 log2FC (Gene 5551): -0.050 | PRKAA1 log2FC (Gene 5562): 0.429 | PRKAA2 log2FC (Gene 5563): 0.082 | PRKCA log2FC (Gene 5578): -0.217 | PRKCD log2FC (Gene 5580): -0.079 | PRKCE log2FC (Gene 5581): -0.042 | PRKCG log2FC (Gene 5582): -0.093 | PRKCH log2FC (Gene 5583): -0.256 | PRKCI log2FC (Gene 5584): 0.583 | PKN2 log2FC (Gene 5586): 0.510 | PRKD1 log2FC (Gene 5587): 0.494 | PRKCQ log2FC (Gene 5588): 0.132 | PRKCZ log2FC (Gene 5590): 0.430 | PRKDC log2FC (Gene 5591): 0.131 | MAPK3 log2FC (Gene 5595): -0.190 | MAPK7 log2FC (Gene 5598): -0.336 | MAP2K6 log2FC (Gene 5608): 0.116 | PRODH log2FC (Gene 5625): -0.290 | LGMN log2FC (Gene 5641): -0.066 | PSEN1 log2FC (Gene 5663): 0.418 | PSEN2 log2FC (Gene 5664): -0.458 | PSMA2 log2FC (Gene 5683): 0.460 | PSMA3 log2FC (Gene 5684): 0.270 | PSMA4 log2FC (Gene 5685): 0.609 | PSMA6 log2FC (Gene 5687): 0.200 | PSMB1 log2FC (Gene 5689): 0.085 | PSMB2 log2FC (Gene 5690): -0.547 | PSMB4 log2FC (Gene 5692): 0.132 | PSMB5 log2FC (Gene 5693): -0.298 | PSMB6 log2FC (Gene 5694): -0.120 | PSMB9 log2FC (Gene 5698): -0.203 | PSMB10 log2FC (Gene 5699): -0.184 | PSMC1 log2FC (Gene 5700): 0.172 | PSMC2 log2FC (Gene 5701): 0.576 | PSMC3 log2FC (Gene 5702): -0.176 | PSMC5 log2FC (Gene 5705): -0.327 | PSMC6 log2FC (Gene 5706): 0.776 | PSMD1 log2FC (Gene 5707): 0.397 | PSMD3 log2FC (Gene 5709): -0.109 | PSMD4 log2FC (Gene 5710): -0.086 | PSMD5 log2FC (Gene 5711): 0.388 | PSMD7 log2FC (Gene 5713): 0.182 | PSMD8 log2FC (Gene 5714): -0.132 | PSMD9 log2FC (Gene 5715): -0.171 | PSMD10 log2FC (Gene 5716): -0.293 | PSMD11 log2FC (Gene 5717): -0.214 | PSMD12 log2FC (Gene 5718): -0.582 | PSME1 log2FC (Gene 5720): 0.322 | PTEN log2FC (Gene 5728): 1.014 | PTGFR log2FC (Gene 5737): -0.039 | PTGIS log2FC (Gene 5740): 0.033 | PTH log2FC (Gene 5741): -0.079 | PTGS2 log2FC (Gene 5743): -0.151 | PTK2 log2FC (Gene 5747): 0.157 | PTPN6 log2FC (Gene 5777): 0.120 | PTPRC log2FC (Gene 5788): -0.053 | PTPRH log2FC (Gene 5794): 0.279 | RAC1 log2FC (Gene 5879): -0.258 | RAD9A log2FC (Gene 5883): 0.686 | RAD21 log2FC (Gene 5885): 1.043 | RAG1 log2FC (Gene 5896): 0.657 | RALB log2FC (Gene 5899): 0.324 | RARA log2FC (Gene 5914): -0.580 | RARG log2FC (Gene 5916): -0.272 | RASA1 log2FC (Gene 5921): 0.488 | RASGRF2 log2FC (Gene 5924): -0.240 | RB1 log2FC (Gene 5925): 0.746 | RELA log2FC (Gene 5970): -0.454 | DPF2 log2FC (Gene 5977): 0.303 | REST log2FC (Gene 5978): 0.367 | ROBO1 log2FC (Gene 6091): 0.128 | ROBO2 log2FC (Gene 6092): -0.056 | ROCK1 log2FC (Gene 6093): 0.615 | RPS3A log2FC (Gene 6189): 0.669 | RPS6 log2FC (Gene 6194): 0.357 | RPS6KA1 log2FC (Gene 6195): -0.234 | RPS6KA3 log2FC (Gene 6197): 0.412 | RPS6KB1 log2FC (Gene 6198): 0.426 | RPS27A log2FC (Gene 6233): 0.401 | RTKN log2FC (Gene 6242): -0.208 | SORT1 log2FC (Gene 6272): 0.261 | S100A8 log2FC (Gene 6279): 0.469 | S100B log2FC (Gene 6285): -0.122 | SATB1 log2FC (Gene 6304): 0.589 | SCT log2FC (Gene 6343): -0.095 | CCL2 log2FC (Gene 6347): -0.179 | CCL3 log2FC (Gene 6348): -0.223 | CCL5 log2FC (Gene 6352): 0.088 | CCL21 log2FC (Gene 6366): -0.170 | CX3CL1 log2FC (Gene 6376): -0.563 | CXCL12 log2FC (Gene 6387): -0.211 | MAP2K4 log2FC (Gene 6416): 0.120 | SET log2FC (Gene 6418): 0.225 | SFRP1 log2FC (Gene 6422): 0.214 | SFRP2 log2FC (Gene 6423): -0.093 | SFRP4 log2FC (Gene 6424): 0.051 | SFRP5 log2FC (Gene 6425): -0.042 | ITSN1 log2FC (Gene 6453): 0.278 | SHB log2FC (Gene 6461): -0.876 | SHH log2FC (Gene 6469): -0.209 | SIAH1 log2FC (Gene 6477): 0.248 | SIAH2 log2FC (Gene 6478): -0.579 | STIL log2FC (Gene 6491): 0.485 | SIX1 log2FC (Gene 6495): -0.507 | SKI log2FC (Gene 6497): -0.663 | SLC9A1 log2FC (Gene 6548): -0.600 | SLIT3 log2FC (Gene 6586): -0.286 | SNAI2 log2FC (Gene 6591): 0.199 | SMO log2FC (Gene 6608): -0.194 | SMPD1 log2FC (Gene 6609): 0.257 | SMPD2 log2FC (Gene 6610): -0.399 | SIGLEC1 log2FC (Gene 6614): -0.350 | SNAI1 log2FC (Gene 6615): -0.710 | SNCB log2FC (Gene 6620): -0.626 | SNCA log2FC (Gene 6622): -0.041 | SOD2 log2FC (Gene 6648): 0.179 | SON log2FC (Gene 6651): -0.111 | SOX2 log2FC (Gene 6657): 0.298 | SOX4 log2FC (Gene 6659): 0.216 | SOX9 log2FC (Gene 6662): -2.381 | SOX10 log2FC (Gene 6663): -0.095 | SP100 log2FC (Gene 6672): 0.968 | SPI1 log2FC (Gene 6688): -0.242 | SPN log2FC (Gene 6693): -0.216 | SRC log2FC (Gene 6714): -0.316 | SRPK2 log2FC (Gene 6733): 0.850 | SST log2FC (Gene 6750): 0.289 | SSTR3 log2FC (Gene 6753): -0.375 | STAR log2FC (Gene 6770): -0.189 | STAT1 log2FC (Gene 6772): 0.445 | STAT5A log2FC (Gene 6776): 0.569 | STAT5B log2FC (Gene 6777): 0.093 | STK4 log2FC (Gene 6789): 0.158 | STK11 log2FC (Gene 6794): -0.165 | STXBP1 log2FC (Gene 6812): -0.504 | SUPV3L1 log2FC (Gene 6832): 0.440 | ADAM17 log2FC (Gene 6868): 0.578 | TAF9 log2FC (Gene 6880): 0.363 | MAP3K7 log2FC (Gene 6885): 0.181

Source: PMC4303209, “A novel phosphatidylinositol 3-kinase (PI3K) inhibitor directs a potent FOXO-dependent, p53-independent cell cycle arrest phenotype characterized by the differential induction of a subset of FOXO-regulated genes” (Breast Cancer Research : BCR, 2014)
